Results: ChEMBL document CHEMBL2016457, “Discovery of potent and orally bioavailable 17β-hydroxysteroid dehydrogenase type 3 inhibitors” (Bioorg Med Chem, 2012)
Activity calls are given as the source filed them.

Columns and labels:
Rattus norvegicus = experiment: Inhibition of LH-RH agonist leuprorelin-induced testosterone steroidogenesis in Sprague-Dawley rat at 20 mg/kg, po administered 1 hr prior leuprorelin-induction measured up to 240 mins by GC/MS analysis; type: functional, organism-based; set-up: dose 20 mg/kg
[1] = molecular target: T1, Estrogen receptor (Homo sapiens) (UniProt P03372); experiment: Agonist activity at human Estrogen receptor ERalpha expressed in human HeLa cells assessed as DHT-induced response after 40 hrs by luciferase/beta-galactosidase-based reporter gene assay; type: functional, cell-based
T1 sequence (whole entry): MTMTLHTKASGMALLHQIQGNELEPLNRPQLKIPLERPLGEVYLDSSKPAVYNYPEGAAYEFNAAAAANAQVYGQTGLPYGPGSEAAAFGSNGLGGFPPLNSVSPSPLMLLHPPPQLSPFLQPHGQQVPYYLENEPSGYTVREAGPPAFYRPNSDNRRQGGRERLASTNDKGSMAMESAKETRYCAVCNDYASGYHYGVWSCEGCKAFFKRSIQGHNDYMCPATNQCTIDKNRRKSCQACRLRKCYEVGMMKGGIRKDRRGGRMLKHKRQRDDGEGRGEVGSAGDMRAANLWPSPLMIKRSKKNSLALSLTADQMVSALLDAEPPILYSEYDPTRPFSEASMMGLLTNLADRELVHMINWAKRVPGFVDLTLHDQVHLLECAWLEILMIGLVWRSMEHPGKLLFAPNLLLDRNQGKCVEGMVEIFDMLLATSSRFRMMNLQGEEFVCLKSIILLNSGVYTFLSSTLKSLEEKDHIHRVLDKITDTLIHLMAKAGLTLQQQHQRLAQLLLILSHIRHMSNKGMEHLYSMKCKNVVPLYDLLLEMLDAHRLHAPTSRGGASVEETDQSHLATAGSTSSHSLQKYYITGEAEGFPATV

[2] = molecular target: T2, 17-beta-hydroxysteroid dehydrogenase type 2 (Homo sapiens) (UniProt P37059); experiment: Inhibition of human recombinant 17-beta-HSD2 expressed in human HeLa cells using estradiol as substrate preincubated for 30 mins prior substrate addition measured after 120 mins by spectrophotometry; type: cell-based
T2 sequence (whole entry): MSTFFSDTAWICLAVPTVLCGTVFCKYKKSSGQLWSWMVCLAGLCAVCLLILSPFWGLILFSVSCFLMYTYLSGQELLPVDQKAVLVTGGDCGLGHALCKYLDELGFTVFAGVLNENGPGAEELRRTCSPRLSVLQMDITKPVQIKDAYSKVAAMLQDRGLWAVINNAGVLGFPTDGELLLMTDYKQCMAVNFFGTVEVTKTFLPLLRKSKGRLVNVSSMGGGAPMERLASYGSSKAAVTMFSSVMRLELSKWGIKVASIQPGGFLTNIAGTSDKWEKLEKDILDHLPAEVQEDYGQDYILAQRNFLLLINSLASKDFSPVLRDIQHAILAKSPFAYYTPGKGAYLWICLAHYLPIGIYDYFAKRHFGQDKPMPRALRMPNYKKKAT

[3] = molecular target: T3, Glucocorticoid receptor (Homo sapiens) (UniProt P04150); experiment: Agonist activity at human Glucocorticoid receptor expressed in human HeLa cells assessed as DHT-induced response after 40 hrs by luciferase/beta-galactosidase-based reporter gene assay; type: functional, cell-based
T3 sequence (whole entry): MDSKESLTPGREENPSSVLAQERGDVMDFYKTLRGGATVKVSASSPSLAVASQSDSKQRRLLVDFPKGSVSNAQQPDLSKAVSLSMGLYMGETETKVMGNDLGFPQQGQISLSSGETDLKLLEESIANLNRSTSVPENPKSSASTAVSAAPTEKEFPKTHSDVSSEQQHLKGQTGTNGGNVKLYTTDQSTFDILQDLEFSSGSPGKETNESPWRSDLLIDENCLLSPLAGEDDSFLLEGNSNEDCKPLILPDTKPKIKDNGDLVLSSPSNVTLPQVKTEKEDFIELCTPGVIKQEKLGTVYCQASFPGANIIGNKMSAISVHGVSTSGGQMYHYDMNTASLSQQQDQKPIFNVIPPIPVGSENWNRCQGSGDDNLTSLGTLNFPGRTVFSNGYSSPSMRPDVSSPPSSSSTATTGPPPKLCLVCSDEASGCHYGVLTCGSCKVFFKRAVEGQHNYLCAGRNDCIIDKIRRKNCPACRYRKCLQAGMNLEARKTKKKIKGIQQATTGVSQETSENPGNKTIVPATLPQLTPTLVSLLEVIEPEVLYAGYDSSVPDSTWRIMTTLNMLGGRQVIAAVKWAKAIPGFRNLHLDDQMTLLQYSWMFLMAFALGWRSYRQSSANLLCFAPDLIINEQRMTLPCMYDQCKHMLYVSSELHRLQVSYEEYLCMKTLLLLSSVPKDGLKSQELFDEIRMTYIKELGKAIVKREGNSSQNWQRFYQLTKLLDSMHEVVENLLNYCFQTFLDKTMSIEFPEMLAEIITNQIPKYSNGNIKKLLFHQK

[4] = molecular target: T1, Estrogen receptor (Homo sapiens); experiment: Antagonist activity at human ERalpha receptor expressed in human HeLa cells assessed as inhibition of DHT-induced response after 40 hrs by luciferase/beta-galactosidase-based reporter gene assay; type: functional, cell-based
[5] = Solubility of the compound; type: physicochemical
[6] = molecular target: T4, Androgen receptor (Homo sapiens) (UniProt P10275); experiment: Antagonist activity at human androgen receptor expressed in human HeLa cells assessed as inhibition of DHT-induced response after 40 hrs by luciferase/beta-galactosidase-based reporter gene assay; type: functional, cell-based
T4 sequence (whole entry): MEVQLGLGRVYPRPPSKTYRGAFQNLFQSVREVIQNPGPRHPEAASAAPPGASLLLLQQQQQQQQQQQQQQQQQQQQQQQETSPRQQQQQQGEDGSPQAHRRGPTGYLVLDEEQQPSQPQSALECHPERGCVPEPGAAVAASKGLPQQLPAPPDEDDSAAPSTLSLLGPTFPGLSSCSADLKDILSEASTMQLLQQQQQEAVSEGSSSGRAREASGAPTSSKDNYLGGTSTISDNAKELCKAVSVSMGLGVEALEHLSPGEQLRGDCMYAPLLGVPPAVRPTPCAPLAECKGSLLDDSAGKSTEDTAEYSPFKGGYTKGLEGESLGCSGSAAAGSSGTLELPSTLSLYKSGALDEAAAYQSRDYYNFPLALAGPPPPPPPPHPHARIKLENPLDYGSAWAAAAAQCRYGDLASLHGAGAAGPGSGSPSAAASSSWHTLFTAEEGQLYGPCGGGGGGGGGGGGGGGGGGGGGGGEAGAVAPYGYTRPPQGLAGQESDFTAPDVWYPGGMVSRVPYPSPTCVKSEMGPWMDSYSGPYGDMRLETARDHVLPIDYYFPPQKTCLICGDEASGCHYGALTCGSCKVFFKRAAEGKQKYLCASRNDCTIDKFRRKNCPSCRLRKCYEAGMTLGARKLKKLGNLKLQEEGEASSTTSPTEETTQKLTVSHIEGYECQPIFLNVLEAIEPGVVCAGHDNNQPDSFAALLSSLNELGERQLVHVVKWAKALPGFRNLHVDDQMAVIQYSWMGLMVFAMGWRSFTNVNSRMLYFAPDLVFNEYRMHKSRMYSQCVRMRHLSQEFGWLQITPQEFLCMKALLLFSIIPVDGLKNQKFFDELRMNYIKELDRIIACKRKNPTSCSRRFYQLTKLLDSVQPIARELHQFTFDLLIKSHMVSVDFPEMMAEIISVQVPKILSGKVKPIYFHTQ

[7] = molecular target: T5, 17-beta-hydroxysteroid dehydrogenase type 1 (Homo sapiens) (UniProt P14061); experiment: Inhibition of human recombinant 17-beta-HSD1 expressed in human HeLa cells using estrone as substrate preincubated for 30 mins prior substrate addition measured after 120 mins by spectrophotometry; type: cell-based
T5 sequence (whole entry): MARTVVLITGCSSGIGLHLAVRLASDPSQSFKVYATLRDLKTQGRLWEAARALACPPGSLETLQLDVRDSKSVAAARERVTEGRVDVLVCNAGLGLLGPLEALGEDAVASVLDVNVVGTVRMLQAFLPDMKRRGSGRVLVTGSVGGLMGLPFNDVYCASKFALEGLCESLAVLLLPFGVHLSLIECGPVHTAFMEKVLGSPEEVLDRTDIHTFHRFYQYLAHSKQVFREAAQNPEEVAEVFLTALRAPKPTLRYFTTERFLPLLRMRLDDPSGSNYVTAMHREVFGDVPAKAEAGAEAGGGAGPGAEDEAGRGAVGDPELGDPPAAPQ

[8] = molecular target: T4, Androgen receptor (Homo sapiens); experiment: Agonist activity at human androgen receptor expressed in human HeLa cells assessed as DHT-induced response after 40 hrs by luciferase/beta-galactosidase-based reporter gene assay; type: functional, cell-based
[9] = molecular target: T3, Glucocorticoid receptor (Homo sapiens); experiment: Antagonist activity at human GR receptor expressed in human HeLa cells assessed as inhibition of DHT-induced response after 40 hrs by luciferase/beta-galactosidase-based reporter gene assay; type: functional, cell-based

SMILES | inhibition (Rattus norvegicus) | Activity [1] | inhibition [2] | Activity [3] | Activity [4] | solubility [5] [µg/mL] | Activity [6] | inhibition [7] | Activity [8] | Activity [9]
CC(=O)O[C@H]1CC[C@@]2(C)C(=CC[C@@H]3[C@@H]2CC[C@]2(C)C(c4cccnc4)=CC[C@@H]32)C1 | Active |  |  |  |  |  |  |  |  | 
COc1ccc(N2C(=O)/C(=C/c3ccc(O)c(Br)c3)OC2=S)cc1 |  | inactive | inactive | inactive | inactive | < 1 | inactive | inactive | inactive | inactive
